Laboratory results published in US11286256B2, “Bicyclic inhibitors of histone deacetylase” (Alkermes, Inc., priority 2017, dated 2022).

How the values were obtained:
[1] = tested on: human erythroid progenitors (CFU-E, BFU-E); assay: Erythroid CFU assay in human bone marrow cells; assay type: cell-based; conditions: 10 μM, 14 days culture, human bone marrow cells
Experimental: (§1) Compounds were tested to evaluate the potential effects on human erythroid and myeloid progenitors using colony forming cell assays. Clonogenic progenitors of human erythroid (CFU-E, BFU-E), granulocyte-monocyte (CFU-GM) and multipotential (CFU-GEMM) lineages were assessed in a semi-solid methylcellulose-based media formulation containing rhlL-3 (10 ng/mL), rhGM-SCF (10 ng/mL), rhSCF (50 ng/mL) and Epo (3 U/mL).
(§2) Normal human bone marrow light density cells derived from normal bone marrow (NorCal Biologics, California) and qualified at ReachBio, were stored in the gaseous phase of liquid nitrogen (−152° C.) until required for the assay. On the day of the experiment, the cells were thawed rapidly, the contents of each vial was diluted in 10 mL of Iscove's modified Dulbecco's medium containing 10% fetal bovine serum (IMDM+10% FBS) and washed by centrifugation (approximately 1200 r.p.m. for 10 minutes, room temperature). The supernatant was discarded and the cell pellets resuspended in a known volume of IMDM+10% FBS. A cell count (3% glacial acetic acid) and viability assessment (trypan blue exclusion test) was performed for the bone marrow sample.
(§3) On the day of the experiment, the compounds were dissolved in DMSO to a stock concentration of 10 mM. Serial dilutions were prepared from the stock concentration to achieve concentrations of 2 and 0.4 mM. When added to the methylcellulose-based media at 1:1000 (v/v), the final test concentrations of 10, 2 and 0.4 μM were achieved. Additionally, 5-FU was evaluated at 1.0, 0.1 and 0.01 μg/mL.
(§4) Clonogenic progenitors of the human erythroid (CFU-E and BFU-E) and myeloid (CFU-GM) lineages were set up in the methylcellulose-based media formulations described above. All compounds were added to the medium to give the final desired concentrations (10, 2 and 0.4 μM). 5-Fluorouracil (Sigma Aldrich) was used as a positive control for progenitor proliferation (inhibition of colony growth) and was introduced to the human bone marrow cultures at 1.0, 0.1, and 0.01 μg/mL. Solvent control cultures (containing no compound but 0.1% DMSO) as well as standard controls (containing no compound and no DMSO) were also initiated.
(§5) Human myeloid and erythroid progenitor assays were initiated at 2.0×10^4 cells per culture. Following 14 days in culture, myeloid and erythroid colonies were assessed microscopically and scored by trained personnel. The colonies were divided into the following categories based on size and morphology: CFU-E, BFU-E, CFU-GM and CFU-GEMM.
(§6) The mean±one standard deviation of three replicate cultures was calculated for progenitors of each category (CFU-E, BFU-E, etc.). Two-tailed t-tests were performed to assess if there was a difference in the number of colonies generated between solvent control and treated cultures. Due to the potential subjectivity of colony enumeration, a p value of less than 0.01 is deemed significant. To calculate the concentration of 50% inhibition of colony growth (IC50) for each compound, a dose response curve was generated plotting the log of the compound concentration versus the percentage of control colony growth using XLfit software (IDBS). The concentration of 50% inhibition of colony growth (IC50) was calculated based on the sigmoid curve fit using Dose-Response, One-Site Model formula: y=A+[(B−A)/(1+((C/x)^D))], where A=the initial value (baseline response), B=maximum response, C=center (drug concentration that provokes a response halfway between A and B) and D=slope of the curve at midpoint. Further, plots and additional dose response curves were generated using GraphPad Prism 7.0.
(§7) Erythroid (CFU-E and BFU-E), myeloid (CFU-GM) and multi-potential (CFU-GEMM) colony enumeration was performed by trained personnel. The distribution of colony types as well as general colony and cellular morphology was analyzed. For statistical analysis colony numbers in compound treated cultures were compared to the solvent control cultures. […]

[2] = tested on: human myeloid progenitors (CFU-GM); assay: Myeloid CFU assay in human bone marrow cells; assay type: cell-based; conditions: 10 μM, 14 days culture, human bone marrow cells
Experimental: as §1, §2, §3, §4, §5, §6, §7

[3] = biological target: T1, CYP3A4 (Homo sapiens, UniProt P08684); assay: CYP inhibition assay in human liver microsomes (3A4, midazolam); assay type: in vitro ADME; conditions: for inhibition at 5 min, 10 µM: probe midazolam, human liver microsomes, midazolam
T1 construct: Human liver microsomes were obtained from BD Gentest; tissue BD Gentest; host or cells: human liver microsomes
T1 sequence (P08684 whole entry): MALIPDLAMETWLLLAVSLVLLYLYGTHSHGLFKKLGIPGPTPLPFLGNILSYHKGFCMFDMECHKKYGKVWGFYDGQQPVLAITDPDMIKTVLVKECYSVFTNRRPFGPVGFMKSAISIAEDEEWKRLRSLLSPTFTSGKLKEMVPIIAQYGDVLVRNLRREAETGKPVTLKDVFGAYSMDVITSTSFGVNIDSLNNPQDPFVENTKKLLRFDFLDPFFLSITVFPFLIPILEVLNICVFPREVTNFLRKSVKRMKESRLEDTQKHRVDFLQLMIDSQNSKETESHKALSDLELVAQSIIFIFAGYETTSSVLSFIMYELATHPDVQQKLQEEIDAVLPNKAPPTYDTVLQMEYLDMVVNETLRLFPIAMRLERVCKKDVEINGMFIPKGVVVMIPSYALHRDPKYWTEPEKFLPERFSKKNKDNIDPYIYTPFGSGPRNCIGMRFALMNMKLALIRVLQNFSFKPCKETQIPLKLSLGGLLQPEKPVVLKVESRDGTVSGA
Experimental: Compounds were tested to evaluate their inhibitory potential on CYP2D6 and CYP3A4 (midazolam) using human liver microsomes. Human liver microsomes were obtained from BD Gentest, and each compound was run in duplicate.
The test compounds and reference inhibitors (quinidine for 2D6, ketoconazole for 3A4) were plated in a 96-well plate by transferring 8 μL of 10 mM stock solutions of compound in DMSO to 12 μL of acetonitrile. Individual inhibitor spiking solutions were prepared for CYP2D6 and CYP3A4 (8 μL of DMSO stock added to 12 μL of acetonitrile). Next added 400 μL of 0.2 mg/mL HLM to the assay wells and then added 2 μL of 400× test compound into the designated wells on ice. Next, added 200 μL of 0.2 mg/mL HLM to the assay wells and then added 1 μL of reference inhibitor solutions into the designated wells. The following solutions were added (in duplicate) to a 96-well assay plate on ice: The test compounds and reference inhibitors (quinidine for 2D6, ketoconazole for 3A4) were tested using the following experimental procedure:
10. Incubate the assay plate at 37° C. 5 min for 3A4, 10 min for 2D6.
11. Stop the reaction by adding 120 μL of ACN containing Internal Standard. For CYP3A4, the internal standard is 1′OH-midazolam-D4 (10 μM solution diluted to a final concentration of 0.1 μM by adding 100 μL internal standard stock to 10 mL ACN). For CYP2D6, the internal standard is 1-OH-Bufuralol-maleate-[D9] (49 μM solution diluted to a final concentration of 0.1 μM by adding 20 μL internal standard stock to 10 mL ACN).
The assessment on CYP isoform inhibition is as follows based on the assay results: if percentage of CYP inhibition is higher than 50%, indicates potent inhibition; if percentage of CYP inhibition is between 30-50%, indicates […]; if percentage of CYP inhibition is less than 30%, indicates slight or no inhibition. If the percentage of CYP inhibition is less than −30%, this indicates the compound may have some kind of activation of this isoform.

Row | CFU % Control remaining @ 10 μM Erythroid [1] | CFU % Control remaining @ 10 μM Myeloid [2] | inhibition at 5 min, 10 µM [3] | inhibition of CYP3A4 (in words) ([3]; 10 μM) | Structure (SMILES)
1 | 9% | 25% | 1.5% | – | Nc1ccc(-c2ccc(F)cc2)nc1NC(=O)N1Cc2nccnc2C1 [Comparator B]
2 | 20% | 20% | 1% | – | Nc1ccc(-c2cccs2)nc1NC(=O)N1Cc2nccnc2C1 [Comparator C]
3 | 27% | 59% | 1% | no significant inhibition | Cc1ncc2c(n1)CN(C(=O)Nc1nc(-c3cccs3)ccc1N)C2 [Compound 2]
4 | 0% | 0% | -22% | – | Nc1ccc(-c2ccc(F)cc2)cc1NC(=O)N1Cc2nccnc2C1 [Comparator A]
5 | 57% | 86% | 27% | – | COCc1cc2c(cn1)CN(C(=O)Nc1nc(-c3ccc(F)cc3F)ccc1N)C2 [Compound 1]
6 | 54% | 83% | -17% | – | Nc1ccc(-c2cccs2)nc1NC(=O)N1Cc2cncnc2C1 [Comparator E]
7 | 47% | 84% | 2% | – | Nc1ccc(-c2ccc(F)cc2)nc1NC(=O)N1Cc2cncnc2C1 [Comparator D]
